Measured values published in patent publication US11046675B2, “Substituted isoquionline derivatives as immunomudulators” (Bristol-Myers Squibb Company, priority 2017, dated 2021).
Like-named read-outs stand apart in the source and are kept apart here.

Target: PD-1/PD-L1 (Homo sapiens (Human), UniProt Q9NZQ7)
Assay: PD-1/PD-L1 Homogenous Time-Resolved Fluorescence (HTRF) binding assay
Conditions: PD-L1-His 10 nM, PD-1-Ig 20 nM, read-out: IC50 (μM) (Range or value)
Description: The ability of the compounds of formula (I) to bind to PD-L1 was investigated using a PD-1/PD-L1 Homogenous Time-Resolved Fluorescence (HTRF) binding assay.
Homogenous Time-Resolved Fluorescence (HTRF) Binding Assay
The interaction of PD-1 and PD-L1 can be assessed using soluble, purified preparations of the extracellular domains of the two proteins. The PD-1 and PD-L1 protein extracellular domains were expressed as fusion proteins with detection tags, for PD-1, the tag was the Fc portion of Immunoglobulin (PD-1-Ig) and for PD-L1 it was the 6 histidine motif (PD-L1-His). All binding studies were performed in an HTRF assay buffer consisting of dPBS supplemented with 0.1% […] bovine serum albumin and 0.05% (v/v) Tween-20. For the h/PD-L1-His binding assay, inhibitors were pre-incubated with PD-L1-His (10 nM final) for 15m in 4 μl of assay buffer, followed by addition of PD-1-Ig (20 nM final) in 1 μl of assay buffer and further incubation for 15 m. HTRF detection was achieved using europium crypate-labeled anti-Ig (1 nM final) and allophycocyanin (APC) labeled anti-His (20 nM final). Antibodies were diluted in HTRF detection buffer and 5 μl was dispensed on top of the binding reaction. The reaction mixture was allowed to equilibrate for 60 minutes and the resulting signal (665 nm/620 nm ratio) was obtained using an EnVision fluorometer. Additional binding assays were established between the human proteins PD-1-Ig/PD-L2-His (20 & 2 nM, respectively) and CD80-His/PD-L1-Ig (100 & 10 nM, respectively).
Recombinant Proteins: Human PD-1 (25-167) with a C-terminal human Fc domain of immunoglobulin G (Ig) epitope tag [hPD-1 (25-167)-3S-IG] and human PD-L1 (18-239) with a C-terminal His epitope tag [hPD-L1(18-239)-TVMV-His] were expressed in HEK293T cells and purified sequentially by ProteinA affinity chromatography and size exclusion chromatography. Human PD-L2-His and CD80-His was obtained through commercial sources.

PD-1/PD-L1, sequence (Q9NZQ7 other isoform, or with tags, fused parts or gaps): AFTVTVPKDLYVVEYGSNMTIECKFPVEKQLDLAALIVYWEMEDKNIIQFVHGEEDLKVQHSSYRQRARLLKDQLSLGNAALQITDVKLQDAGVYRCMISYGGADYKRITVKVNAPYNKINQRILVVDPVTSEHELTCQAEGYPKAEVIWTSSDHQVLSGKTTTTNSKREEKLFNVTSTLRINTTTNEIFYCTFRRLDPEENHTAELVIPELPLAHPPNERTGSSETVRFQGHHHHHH

SMILES | IC50 (reported as value) | IC50 (reported as range class)
Cc1c(COc2ccc3c(c2)CN[C@@H](C(=O)O)C3)cccc1-c1ccc2c(c1)OCCO2 [Example 1004, (R)-7-((3-(2,3-dihydrobenzo[b][1,4]dioxin-6-yl)-2-methylbenzyl)oxy)-1,2,3,4-tetrahydroisoquinoline-3-carboxylic acid] |  | 1.51 to 10 µM
Cc1c(COc2cc(O)c3c(c2)CCN(CC(=O)O)C3)cccc1-c1ccc2c(c1)OCCO2 [Example 1003, 2-(6-((3-(2,3-dihydrobenzo[b][1,4]dioxin-6-yl)-2-methylbenzyl)oxy)-8-hydroxy-3,4-dihydroisoquinolin-2(1H)-yl)acetic acid] |  | 0.051 to 1.5 µM
COC(=O)CN1CCc2c(Cl)c(OCc3cccc(-c4cccc(OCCCN5CC[C@@H](O)C5)c4C)c3C)cc(OCc3cncc(C(=O)OC)c3)c2C1 [Example 1008, methyl (R)-5-(((5-chloro-6-((3′-(3-(3-hydroxypyrrolidin-1-yl)propoxy)-2,2′-dimethyl-[1,1′-biphenyl]-3-yl)methoxy)-2-(2-methoxy-2-oxoethyl)-1,2,3,4-tetrahydroisoquinolin-8-yl)oxy)methyl)nicotinate] | > 10 µM | 
Cc1c(COc2cc3c(c(OCc4cncc(C#N)c4)c2)CN(CC(=O)O)CC3)cccc1-c1ccc2c(c1)OCCO2 [Example 1001, 2-(8-((5-cyanopyridin-3-yl)methoxy)-6-((3-(2,3-dihydrobenzo[b][1,4]dioxin-6-yl)-2-methylbenzyl)-oxy)-3,4-dihydroisoquinolin-2(1H)-yl)acetic acid] |  | 0.002 to 0.015 µM

Next, values leading:

IC50 (reported as value) | IC50 (reported as range class) | SMILES
0.002 µM |  | Cc1c(COc2cc(OCc3cncc(C#N)c3)c3c(c2Cl)CCN(CC(=O)O)C3)cccc1-c1cccc(OCCCN2CC[C@@H](O)C2)c1C [Example 1006, (R)-2-(5-chloro-8-((5-cyanopyridin-3-yl)methoxy)-6-((3′-(3-(3-hydroxypyrrolidin-1-yl)propoxy)-2,2′-dimethyl-[1,1′-biphenyl]-3-yl)methoxy)-3,4-dihydroisoquinolin-2(1H)-yl)acetic acid]
> 10 µM |  | Cc1c(COc2ccc3c(c2)CN[C@H](C(=O)O)C3)cccc1-c1ccc2c(c1)OCCO2 [Example 1005, (S)-7-((3-(2,3-dihydrobenzo[b][1,4]dioxin-6-yl)-2-methylbenzyl)oxy)-1,2,3,4-tetrahydroisoquinoline-3-carboxylic acid]
 | 0.016 to 0.05 µM | COC(=O)c1cncc(COc2cc(OCc3cccc(-c4cccc(OCCCN5CC[C@@H](O)C5)c4C)c3C)c(Cl)c3c2CN(CC(=O)O)CC3)c1 [Example 1007, (R)-2-(5-chloro-6-((3′-(3-(3-hydroxypyrrolidin-1-yl)propoxy)-2,2′-dimethyl-[1,1′-biphenyl]-3-yl)methoxy)-8-((5-(methoxycarbonyl)pyridin-3-yl)methoxy)-3,4-dihydro-isoquinolin-2(1H)-yl)acetic acid]
 | 0.051 to 1.5 µM | Cc1c(COc2cc(OCc3cncc(C#N)c3)cc3c2CN(CC(=O)O)CC3)cccc1-c1ccc2c(c1)OCCO2 [Example 1002, 2-(6-((5-cyanopyridin-3-yl)methoxy)-8-((3-(2,3-dihydrobenzo[b][1,4]-dioxin-6-yl)-2-methylbenzyl)oxy)-3,4-dihydroiso-quinolin-2(1H)-yl)acetic acid]
